A short description of data set [1]: in vivo. More on the design: species or system ICR mice. The conditions noted are these: both sexes, ICR, mouse, inhaled or intranasal. The method, then:
Test Example 3: PK Assay by Intratracheal Administration
Time points for plasma collection were: 0.25 h, 0.5 h, 1 h, 2 h, 4 h, 8 h, 12 h, and 24 h. […] Time points for lung tissue collection were: 0.5 h, 2 h, 8 h, and 24 h.
30.0 µL of plasma sample was added to a 1.5 mL centrifuge tube, and 150 µL of an internal standard working solution was added. […] 70.0 µL of the supernatant was added to a 96-well plate, and 70.0 µL of deionized water was added. The resulting mixture was well shaken, and 2.00 µL of the mixture was taken for LC-MS/MS analysis.
An appropriate amount of the lung tissue sample was accurately weighed out and placed into a homogenate tube, and acetonitrile was added at a volume equivalent to 5 times the weight of the sample. The mixture was homogenized and ultrasonicated for 5 min. 20.0 µL of the lung tissue homogenate sample was taken, and 30.0 µL of an internal standard working solution and 200 µL of acetonitrile were added. […] 100 µL of the supernatant was added to a 96-well plate, and 100 µL of deionized water was added.

Data set [2] concerns the target PDE3A (Homo sapiens, UniProt Q14432). Briefly: In vitro PDE3A enzyme activity assay, IMAP FP-based.
In data set [3] the target is PDE4B1 (Homo sapiens, UniProt Q07343). The experiment in a line: In vitro PDE4B enzyme activity assay, IMAP FP-based. The conditions noted are these: for inhibition at 2 µM: read-out: Inhibition rate (%) PDE4B1(2000 nM).

Each structure is given as a SMILES string.

Chain of PDE4B1 (Q07343 whole entry): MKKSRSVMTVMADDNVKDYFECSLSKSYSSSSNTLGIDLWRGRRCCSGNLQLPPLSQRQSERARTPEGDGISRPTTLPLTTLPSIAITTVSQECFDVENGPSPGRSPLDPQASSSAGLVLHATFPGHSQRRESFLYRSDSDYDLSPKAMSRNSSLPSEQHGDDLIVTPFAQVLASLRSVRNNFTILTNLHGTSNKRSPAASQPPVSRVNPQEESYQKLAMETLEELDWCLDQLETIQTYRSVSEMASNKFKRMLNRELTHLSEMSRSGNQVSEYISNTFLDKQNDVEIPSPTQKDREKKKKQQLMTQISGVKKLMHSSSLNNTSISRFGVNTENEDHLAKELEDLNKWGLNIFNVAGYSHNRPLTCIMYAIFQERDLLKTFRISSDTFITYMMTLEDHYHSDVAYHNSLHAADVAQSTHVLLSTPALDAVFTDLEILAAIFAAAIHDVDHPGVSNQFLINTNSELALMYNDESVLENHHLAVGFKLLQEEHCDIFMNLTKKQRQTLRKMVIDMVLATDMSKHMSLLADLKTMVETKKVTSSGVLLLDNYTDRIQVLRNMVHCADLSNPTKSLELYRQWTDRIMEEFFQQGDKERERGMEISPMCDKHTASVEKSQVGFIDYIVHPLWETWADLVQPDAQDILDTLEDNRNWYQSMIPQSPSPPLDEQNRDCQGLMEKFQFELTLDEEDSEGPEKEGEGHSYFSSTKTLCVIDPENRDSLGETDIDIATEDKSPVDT
Chain of PDE3A (Q14432 669-1141 limits assumed): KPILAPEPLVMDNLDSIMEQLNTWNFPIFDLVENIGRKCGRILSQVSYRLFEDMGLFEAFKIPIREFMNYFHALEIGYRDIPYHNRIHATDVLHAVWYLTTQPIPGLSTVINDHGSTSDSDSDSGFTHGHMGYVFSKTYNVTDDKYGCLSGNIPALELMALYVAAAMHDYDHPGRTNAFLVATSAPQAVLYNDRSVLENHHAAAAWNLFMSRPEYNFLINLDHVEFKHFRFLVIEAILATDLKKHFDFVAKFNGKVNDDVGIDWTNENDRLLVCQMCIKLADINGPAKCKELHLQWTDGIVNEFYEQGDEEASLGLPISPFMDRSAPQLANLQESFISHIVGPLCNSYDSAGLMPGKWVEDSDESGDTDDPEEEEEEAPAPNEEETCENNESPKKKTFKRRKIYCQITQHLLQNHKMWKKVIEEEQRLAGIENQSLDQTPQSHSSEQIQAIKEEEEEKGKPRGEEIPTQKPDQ

What is called half-life is the time in which the quantity being followed falls by half. What is called Tmax is the time at which the peak concentration occurs. One may read the IC50 as the concentration at which inhibition is half-maximal. Read a high IC50 as lower potency. One may read the inhibition as the drop in the measured response relative to a control, in per cent. `COc1cc2c(cc1OC)-c1cc(=Nc3c(C)cc(C)cc3C)n(CCNC(N)=O)c(=O)n1CC2` [RPL554, 9,10-dimethoxy-2-(2,4,6-trimethylphenylimino)-3-(N-carbamoyl-2-aminoethyl)-3,4,6,7-tetrahydro-2H-pyrimido[6,1-a]isoquinolin-4-one] gave a half-life in data set [1] of 52.8 min. Moreover, the time to peak (Tmax) in data set [1] (Plasma Tmax (h)) came to 15 min. Also, the 50% inhibitory concentration (IC50) is 0.25 nM in data set [2] and 110 nM in data set [3]. The inhibition at 0.5 µM in data set [2] (read-out: Inhibition rate (%) PDE3A (500 nM)) was determined as 99.2%. In data set [3], the inhibition at 2 µM is 64.2%.
As for `CCOc1cc2c(cc1OC)-c1cc(=Nc3c(C)cc(C)cc3C)n(CCN3CCOC3=O)c(=O)n1CC2` [WX001], in data set [3], it took 876 nM to reach half-maximal inhibition (IC50) and the inhibition at 2 µM amounted to 66.3%.
